Patent US6440957B1, “Cephalosporines having cyclic aminoguanidine substituents as antibiotics” (Biochemie Gesellschaft m.b.H., priority 1998, dated 2002)
≈ marks a conversion by molar mass, not a printed value.

What was measured:
Test in all cases: Agar Dilution Test (NCCLS), MIC
Assay type in all cases: cell-based
[1] = tested on: E. coli strain ATCC 10536; conditions: Escherichia coli, ATCC10536
Description: (§1) In particular, the active compounds of the invention show antimicrobial, e.g. antibacterial, activity against e.g. gram negative and gram positive bacteria, e.g. […] bacteria such as Pseudomonas, e.g. Pseudomonas aeruginosa; Escherichia, e.g. Escherichia coli; Enterobacter, e.g. Enterobacter cloacae; Klebsiella, e.g. Klebsiella edwardsii, Klebsiella pneumoniae; Enterococcus, e.g. Enterococcus faecalis; Moraxella, e.g. Moraxell catarrhalis; Streptococcus, e.g. Streptococcus pneumoniae, Streptococcus pyogenes; and Staphylococcus, e.g. Staphylococcus aureus; in vitro in the Agar Dilution Test according to National Commitee for Clinical Laboratory Standards (NCCLS) 1993, Document M7-A3Vol.13, No. 25: “Methods for dilution Antimicrobial Susceptibility Tests for Bacteria that Grow Aerobically—Third Edition, Approved Standard”. […] The active compounds of the invention show an surprising overall activity spectrum.

[2] = tested on: E. coli strain ATCC 35218; conditions: Escherichia coli, ATCC35218
Description: as §1

[3] = tested on: Enterobacter cloacae strains
Description: as §1

[4] = tested on: Klebsiella edwardsii, strain ATCC 10896; conditions: ATCC10896, Example 48 tested in form of the hydrochloride
Description: as §1

Structure (SMILES)	MIC [1] [µg/mL]	MIC [2] [µg/mL]	MIC [3] [µg/mL]	MIC [4] [µg/mL]
CCN1CCN(N=CC2=C(C(=O)O)N3C(=O)C(NC(=O)/C(=N\OCF)c4nsc(N)n4)[C@H]3SC2)C1=NC (some centres unmarked) [Example 48, 7-{[(5-amino-1,2,4-thiadiazole-3-yl)-(Z)-(fluoromethoxyimino)-acetyl]amino}-3-{[(3-ethyl-2-methylimino-imidazolidine-1-yl)imino]methyl}-3-cephem-4-carboxylic acid]	< 0.0125	< 0.0125	< 0.0125	~0.8 (≈ 1.44 µM)
CC(C)(O/N=C(\C(=O)N[C@@H]1C(=O)N2C(C(=O)[O-])=C(C[n+]3ccccc3)CS[C@H]12)c1csc(N)n1)C(=O)O [ceftazidime, reference compound]	–	–	–	~1.6 (≈ 2.93 µM)
